In one test the test system is T1, FIG-ROS(S).
T1 construct: gene ROS1; C-terminal Myc tag; MSCV-Neo in murine BaF3 cells; with Golgi-associated PDZ and coiled-coil motif-containing protein
As to the kind of experiment: BaF3 cell viability (CellTiter […] AQueous One, MTS), IL-3-independent growth. The format is cell-based, Mus musculus. As to conditions: 72 h; growth read-out of cells depending on the fusion kinase; ROS phosphorylation read by Western blot in a separate 3 h test. On the technique in general: A western blot detects proteins with antibodies after separation by electrophoresis.

A further test concerns T2, FIG-ROS(L).
T2 construct: gene ROS1; C-terminal Myc tag; MSCV-Neo in murine BaF3 cells; with Golgi-associated PDZ and coiled-coil motif-containing protein
Described as above. The format is cell-based, Mus musculus. As to conditions: 72 h; growth read-out of cells depending on the fusion kinase; ROS phosphorylation read by Western blot in a separate 3 h test.

The subject of the next test is T3, NPM-ALK.
T3 construct: endogenous NPM-ALK fusion in Karpas-299 cells; with Nucleophosmin
Nature of the test: Karpas-299 cell viability (CellTiter […] AQueous One, MTS). The format is cell-based. As to conditions: 72 h; growth read-out of human lymphoma cells with endogenous fusion; control line.

As a reminder, the IC50 is the concentration that inhibits the measured activity by half. Take `COc1cc(N2CCC(N3CCN(C)CC3)CC2)ccc1Nc1ncc(Cl)c(Nc2ccccc2S(=O)(=O)C(C)C)n1` [TAE684]: the results for the half-inhibitory concentration (IC50) with FIG-ROS(S), with FIG-ROS(L) and in the test with NPM-ALK were 10 nM, 1.8 nM and […], respectively.

The record behind these values is PMC3017127, “Survey of Tyrosine Kinase Signaling Reveals ROS Kinase Fusions in Human Cholangiocarcinoma” (PLoS ONE, 2011).
